Consider nine compounds from article PMC4557792 (ACS chemical biology, 2013).

For orientation: IC50 means the concentration that inhibits the measured activity by half. For orientation: Km means the concentration of substrate that gives half-maximal velocity.

The subject of experiment [1] is VMAT. The settings on record: cited from earlier work; for IC50: read-out: IC50, inhibiting [3H]DA uptake, rat brain vesicles.
Experiment [2] has as its target VMAT2 (Rattus norvegicus, UniProt Q01827). Format: cell-based. The settings on record: for inhibitory effect on VMAT2 transport (FFN206 uptake) in screen: tested compound 10 µM, FFN206 1 µM, 30 min preincubation, 60 min uptake.
The test system of experiment [3] is VMAT2. The settings on record: endogenous substrate; cited from earlier work.
Experiment [4] deals with VMAT2-HEK cells. Description: Fluorescence microscopy of FFN206 accumulation in VMAT2-HEK cells. In kind it is cell-based, human.

Structures are written as SMILES.

Sequence of VMAT2 (Rattus norvegicus, UniProt Q01827) (Q01827 whole entry): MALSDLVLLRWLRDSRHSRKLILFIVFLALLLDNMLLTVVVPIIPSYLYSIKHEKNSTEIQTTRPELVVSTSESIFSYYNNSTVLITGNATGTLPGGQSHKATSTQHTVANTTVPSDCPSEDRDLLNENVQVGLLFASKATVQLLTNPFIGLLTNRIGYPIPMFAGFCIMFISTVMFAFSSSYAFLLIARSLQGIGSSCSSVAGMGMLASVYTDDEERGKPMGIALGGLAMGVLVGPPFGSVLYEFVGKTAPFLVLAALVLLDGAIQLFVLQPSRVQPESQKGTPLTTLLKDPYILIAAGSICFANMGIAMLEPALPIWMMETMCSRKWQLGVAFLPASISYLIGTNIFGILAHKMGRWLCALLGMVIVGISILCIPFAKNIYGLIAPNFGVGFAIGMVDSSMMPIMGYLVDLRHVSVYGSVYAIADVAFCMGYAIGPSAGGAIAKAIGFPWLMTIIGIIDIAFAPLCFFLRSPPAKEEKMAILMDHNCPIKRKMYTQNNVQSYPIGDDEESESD

As for `COC(=O)[C@H]1[C@@H](OC(=O)c2ccccc2)C[C@@H]2CC[C@H]1N2C` [cocaine], the “activity in inhibiting vesicular uptake of [3H]DA by VMAT” value (“activity in inhibiting vesicular uptake” for short) in experiment [1] was “inactive”. Further, the “inhibition of FFN206 uptake (negative control)” value in experiment [2] (96-well fluorometric assay, VMAT2-HEK cells) is listed as “no detectable inhibition”. Besides, the “inhibitory effect on VMAT2 transport (FFN206 uptake) in screen” value (“inhibitory effect on VMAT2 transport” for short) in experiment [2] is “no or weak inhibitory effects”.
For `CCN(CC)C(C)C(=O)c1ccccc1` (stereo not shown) [diethylpropion], the “activity in inhibiting vesicular uptake” value in experiment [1] is “inactive”. Besides, in experiment [2], the “inhibitory effect on VMAT2 transport” value is listed as “no or weak inhibitory effects”.
Turning to `NCCc1ccc(O)c(O)c1` [dopamine], in experiment [3], the IC50 is 0.92 ± 0.05 µM and the Km is 0.82 to 0.95 µM.
On to `COc1cc2c(cc1OC)C1CC(=O)C(CC(C)C)CN1CC2` (stereo not shown) [TBZ, tetrabenazine], for which the “FFN206 uptake in VMAT2-HEK cells pre-treated with inhibitor” value in experiment [4] (inhibitor 2 µM, 1 hr preincubation then coincubation, FFN206 5 µM, 2 hr) is on record as “Negligible uptake of FFN206”.
For the compound `CC(C)(N)Cc1ccccc1` [phentermine], the “activity in inhibiting vesicular uptake” value in experiment [1] is “inactive”. In addition, the “inhibitory effect on VMAT2 transport” value in experiment [2] is “no or weak inhibitory effects”.
Turning to `c1ccc(CN2CCNCC2)cc1` [benzylpiperazine], in experiment [1], the “activity in inhibiting vesicular uptake” value is “inactive”. Moreover, the “inhibitory effect on VMAT2 transport” value in experiment [2] was “no or weak inhibitory effects”.
In the case of `C[C@H](N)Cc1ccccc1` [S(+)-amphetamine], the half-inhibitory concentration (IC50) in experiment [1] is 3.27 µM.
Consider `CCN(CC)CCCC(C)Nc1ccnc2cc(Cl)ccc12` (stereo not shown) [Chloroquine, chloroquine], for which the “effect on punctate FFN206 fluorescence signal” value in experiment [4] (100 µM, within 3 minutes of treatment, cells pre-loaded with FFN206 5 µM) was “completely abolished”. Also, in experiment [2], the “inhibitory effect on VMAT2 transport” value is listed as “reduces VMAT2-dependent uptake”.
In the case of `C[C@@H](N)Cc1ccccc1` [R(−)-amphetamine], in experiment [1], the IC50 is 29 µM.
